Columns and labels:
Assay type in all cases: cell-based, human
Settings in all cases: pooled keratinocytes, 20 ppm, 24 hr
IL1A = assay: Gene expression custom microarray, pooled keratinocyte line (Example 3): IL1A
Method: (§1) Cell cultures: Received and began culture of pooled keratinocyte line from Promocell (C-12006; Lot #448Z026). Cells were seeded into a 75 cm2 flask and 2 6 well dishes for expansion and exposure per manufacturer's protocol using Keratinocyte Growth Medium (C2011B), Keratinocyte Supplement Mix (C39016) and CaCl (C34005). 2 ml of prepared solution were added to each of the 6 wells and 7 ml was added to the 75 cm2 flask.
(§2) Experimental phase: When the appropriate quantity of cells were grown, they were detached as described above, but at the final step were seeded into each well of one or more 6 well dishes. Each well received 2 ml of the cells suspended in suspension so they were seeded equally. The dishes were returned to the incubator until 85-95% confluency is reached.
(§3) It was at this stage that all wells were rinsed in PBS after aspirating the growth media. The compound(s) to be tested were previously mixed into a suitable solvent (e.g., DMSO or ethanol) that can be diluted to the desired concentration of test compound (10 μl) in the culture wells without exceeding maximum solvent concentrations and adversely effecting cell viability, and mixed with Basal Keratinocyte Media. NOTE: Standard maximum levels of solvent are 0.1% for DMSO and 0.5% for ETOH. The concentration for each tested compound/natural extract is generally listed in the left-hand column of Table 4. For certain compositions (e.g., compositions 15 and 16), other concentrations were used and are noted in the body of Table 4.
(§4) Every 2 wells on the 6 well plate served as a biological replicate for the purposes of RNA isolation and genetic expression evaluations making each 6 well dish an n=3 for the test compound contained in the media. […]
(§5) At the end of the 24 hr time period, the plates were removed from the incubator, the test media aspirated, and the cells rinsed with PBS. […] Allow 1 minute for saturation of the membrane and then centrifuge for 2 minutes to complete the RNA elution. • Quantify the quantity of RNA and store at −20 C° until use (no more than 1 month) […]

ITGB1 = assay: Gene expression custom microarray, pooled keratinocyte line (Example 3): ITGB1
Method: as §1, §2, §3, §4, §5

TLR2 = assay: Gene expression custom microarray, pooled keratinocyte line (Example 3): TLR2
Method: as §1, §2, §3, §4, §5

COL1A1 = assay: Gene expression custom microarray, pooled keratinocyte line (Example 3): COL1A1
Method: as §1, §2, §3, §4, §5

## C=C(C)[C@@H]1CCC(C)=C[C@H]1c1c(O)cc(CCCCC)cc1O [CBD, cannabidiol, reference compound]
IL1A
  ↓IL1A gene expression, fold increase or decrease vs untreated cells: 2.3 fold
ITGB1
  ↑ITGB1 gene expression, fold increase or decrease vs untreated cells: 1.8 fold
TLR2
  ↑TLR2 gene expression, fold increase or decrease vs untreated cells: 2.8 fold
COL1A1
  ↑COL1A1 gene expression, fold increase or decrease vs untreated cells: 1.6 fold

## CCCCCCCCCCCCCCCC(=O)NCCO [N-palmitoylethanolamide]
IL1A
  ↓IL1A gene expression, fold increase or decrease vs untreated cells: −1.2 fold
ITGB1
  ↑ITGB1 gene expression, fold increase or decrease vs untreated cells: −4 fold
TLR2
  ↑TLR2 gene expression, fold increase or decrease vs untreated cells: −1.3 fold
COL1A1
  ↑COL1A1 gene expression, fold increase or decrease vs untreated cells: −2 fold

## CC(C)[C@]12O[C@H]1[C@@H]1O[C@]13[C@]1(O[C@H]1C[C@H]1C4=C(CC[C@@]13C)C(=O)OC4)[C@@H]2O [Triptolide]
IL1A
  ↓IL1A gene expression, fold increase or decrease vs untreated cells: −14 fold
ITGB1
  ↑ITGB1 gene expression, fold increase or decrease vs untreated cells: −14.7 fold
TLR2
  ↑TLR2 gene expression, fold increase or decrease vs untreated cells: −2.9 fold
COL1A1
  ↑COL1A1 gene expression, fold increase or decrease vs untreated cells: −1.3 fold
